From patent US5256788A, “Moranoline derivatives and their production and the use of moranoline and its derivatives as a stabilizing agent for enzymes” (Nippon Shinyaku Co. Ltd., priority 1989, dated 1993)

Key:
glucoamylase = target: T1, glucoamylase (Rhizopus arrhizus, UniProt P07683); assay: Stabilization of GA (aqueous solution) by moranoline, N-methylmoranoline; assay type: biochemical, Rhizopus niveus
T1 construct: maltose substrate
Protocol: As the enzyme, Rhizopus niveus-derived reagent glucoamylase manufactured by Seikagaku Kogyo Co., Ltd. was used.
After 5 mg of the enzyme was dissolved in 1 ml of 0.1M acetate buffer solution (pH 5.0), moranoline and N-methylmoranoline were dissolved in the solution in a concentration of 6000 μg/ml. The solution was charged in a test tube with a screw stopper followed by incubation at 50° C. Each enzyme solution was diluted with 0.1M acetate buffer solution (pH 5.0) to 100-fold and 100 μl of the dilution was taken. After 400 μl of 5% maltose solution (0.05M acetate buffer solution, pH 4.6) was added thereto, the mixture was reacted at 40° C. for 20 minutes. […] Thereafter, the system was ice cooled and absorbency was measured at 500 nm to determine the glucose amount. […] When the initial enzyme activity (amount of glucose produced) was made […], relative enzyme activity was determined. […]
After 5 mg of the enzyme was dissolved in 1 ml of 0.1M acetate buffer solution (pH 5.0), moranoline and N-methylmoranoline were dissolved in the solution in a concentration of 6000 μg/ml. […] Thereafter, the system was ice cooled and absorbancy was measured at 500 nm to determine the glucose amount. […] When the initial enzyme activity (amount of glucose produced) was made 100, relative enzyme activity was determined. […]

β-glucosidase = assay: Stabilization of β-glucosidase by moranoline and N-methylmoranoline; assay type: biochemical; settings: 6 mg/ml of the hydrochloride, kept at 60° C.
Protocol: Test samples were (1) 1 ml of 0.2M buffer solution of β-glucosidase (300 μg/ml) alone, (2) 1 ml of 0.2M buffer solution of β-glucosidase (300 μg/ml) supplemented with 6 mg/ml of moranoline hydrochloride and, (3) 1 ml of 0.2M buffer solution of β-glucosidase (300 μg/ml) supplemented with 6 mg/ml of N-methylmoranoline hydrochloride. These test samples were kept at 60° C. and the residual enzyme activity was measured with passage of time.
For determination of the enzyme activity, there was used a method measuring absorbancy at 400 nm using […] as a substrate.
That is, 200 μl of 0.014M p-nitrophenyl-β-D-glucoside, 200 μl of the enzyme solution taken from each sample for sampling with passage of time which was appropriately diluted, and 600 μl of 0.2M acetate buffer solution (pH 4.5) were reacted at 30° C. for 15 minutes. After 2 ml of 0.1M disodium carbonate was added thereto to terminate the reaction, a color was formed and the color was measured at 400 nm. When absorbancy at the initiation of the reaction was made 100, relative absorbancy in each time was defined to be residual activity.

T1 sequence (P07683 26-604): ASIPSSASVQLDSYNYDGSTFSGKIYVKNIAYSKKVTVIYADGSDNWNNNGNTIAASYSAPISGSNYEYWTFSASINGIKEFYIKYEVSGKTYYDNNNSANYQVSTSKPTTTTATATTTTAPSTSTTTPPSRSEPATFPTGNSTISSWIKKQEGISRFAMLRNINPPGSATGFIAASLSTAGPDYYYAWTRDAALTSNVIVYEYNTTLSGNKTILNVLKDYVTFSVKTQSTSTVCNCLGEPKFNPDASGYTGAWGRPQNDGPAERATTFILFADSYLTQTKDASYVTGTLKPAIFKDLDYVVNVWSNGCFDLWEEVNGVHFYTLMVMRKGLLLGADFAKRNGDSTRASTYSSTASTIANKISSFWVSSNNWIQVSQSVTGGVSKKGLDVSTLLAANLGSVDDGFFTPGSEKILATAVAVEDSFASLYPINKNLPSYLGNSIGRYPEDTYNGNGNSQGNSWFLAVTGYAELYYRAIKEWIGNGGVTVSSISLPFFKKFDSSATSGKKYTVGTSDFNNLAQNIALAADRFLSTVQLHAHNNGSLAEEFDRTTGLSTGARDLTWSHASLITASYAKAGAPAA

OC[C@H]1NC[C@H](O)[C@@H](O)[C@@H]1O [moranoline]
inhibition of the enzyme activity of glucoamylase (glucoamylase): inhibit the enzyme activity of glucoamylase | stabilizing effect (residual activity, FIG. 4) (β-glucosidase): stabilizing effect
